Measured values published in paper PMC10924921, “Mi-2β promotes immune evasion in melanoma by activating EZH2 methylation” (Nature Communications, 2024).
Entries after “also recorded” stand apart in the source; their conditions may differ.

How the values were obtained:
[1] = tested on: tumor-infiltrating lymphocytes in BRafV600E/Ptennull melanoma; assay: Flow cytometry of tumor-infiltrating lymphocytes, genetically engineered model; type: in vivo, mouse
Experimental: Mi-2β^lox/lox mice were generated and generously provide by Dr. Georgopoulos lab (Massachusetts General Hospital at Harvard Medical School)[31]. Tyr::CreER;BRaf^CA;Pten^lox/lox mice were purchased from Jackson laboratories (Stock No: 013590). All strains of mice were on the background of C57BL/6J background. Gene activation and silencing were induced with intraperitoneal (i.p.) administration of 100 µL/mouse/day tamoxifen (20 mg/mL) for constant 5 days. […] Tumor growth was then monitored each the other day. […] When the following conditions occur, the mouse is regarded as dead and euthanized, including weight loss greater than 15%; significant abdominal distension, especially if it begins to compromise respiratory ability of animal; hunched posture; failure to eat or drink; absence of (or abnormal) feces or urine output; reluctance to move or abnormal gait; Discharges or hemorrhage. Abnormal behavior or vocalizations and tumor size exceeded 1 cm^3. All animal experiments were done according to protocols approved by the ethics committee review board of Boston University and in accordance with the guidelines set forth by the US National Institutes of Health and The ethics committee review board of The 2nd Hospital and School of Medicine, Zhejiang University. […]

B16F10 cell graft = assay: Syngeneic melanoma graft mouse model, tumor growth and survival
Experimental: Mi-2β knockdown or Scramble B16F10 cells (1.5 × 10^5) were mixed with BD matrigel (Matrix Growth Factor Reduced) (BD, 354230) in 100 μl PBS, and then subcutaneously injected into the right flanks of C57BL/6 mice of 8–10 week old (from the Jackson Laboratory, 000664). Tumor growth was measured with calipers, and size was expressed in cubic centimeters every 3 days. For antibody treatment, control IgG (10 mg/kg) or anti-PD-1 (RMP1-14, BioXCell, 10 mg/kg) was injected intraperitoneally (i.p.) on day 6, 9, 12, 15 and 18 after tumor cell inoculation. For tumor growth curve, grafts were measured with calipers and established (0.5*length × width^2) every three days. For survival tests, mice were euthanized when the tumor size exceeded 1 cm^3. […] The mice were euthanized after indicated days or when the allowable endpoint size (1 cm^3) was reached.

Mi-2β mutation (H727A) = molecular target: T1, Mi-2β mutation (H727A) (Homo sapiens, UniProt Q14839, H727A); assay: FRET-based nucleosome repositioning assay with mutant Mi-2β; type: biochemical; details: ATP 1 mM, Z36-MP5 10 µM
T1 construct: made in house
T1 sequence (Q14839 whole entry H727A): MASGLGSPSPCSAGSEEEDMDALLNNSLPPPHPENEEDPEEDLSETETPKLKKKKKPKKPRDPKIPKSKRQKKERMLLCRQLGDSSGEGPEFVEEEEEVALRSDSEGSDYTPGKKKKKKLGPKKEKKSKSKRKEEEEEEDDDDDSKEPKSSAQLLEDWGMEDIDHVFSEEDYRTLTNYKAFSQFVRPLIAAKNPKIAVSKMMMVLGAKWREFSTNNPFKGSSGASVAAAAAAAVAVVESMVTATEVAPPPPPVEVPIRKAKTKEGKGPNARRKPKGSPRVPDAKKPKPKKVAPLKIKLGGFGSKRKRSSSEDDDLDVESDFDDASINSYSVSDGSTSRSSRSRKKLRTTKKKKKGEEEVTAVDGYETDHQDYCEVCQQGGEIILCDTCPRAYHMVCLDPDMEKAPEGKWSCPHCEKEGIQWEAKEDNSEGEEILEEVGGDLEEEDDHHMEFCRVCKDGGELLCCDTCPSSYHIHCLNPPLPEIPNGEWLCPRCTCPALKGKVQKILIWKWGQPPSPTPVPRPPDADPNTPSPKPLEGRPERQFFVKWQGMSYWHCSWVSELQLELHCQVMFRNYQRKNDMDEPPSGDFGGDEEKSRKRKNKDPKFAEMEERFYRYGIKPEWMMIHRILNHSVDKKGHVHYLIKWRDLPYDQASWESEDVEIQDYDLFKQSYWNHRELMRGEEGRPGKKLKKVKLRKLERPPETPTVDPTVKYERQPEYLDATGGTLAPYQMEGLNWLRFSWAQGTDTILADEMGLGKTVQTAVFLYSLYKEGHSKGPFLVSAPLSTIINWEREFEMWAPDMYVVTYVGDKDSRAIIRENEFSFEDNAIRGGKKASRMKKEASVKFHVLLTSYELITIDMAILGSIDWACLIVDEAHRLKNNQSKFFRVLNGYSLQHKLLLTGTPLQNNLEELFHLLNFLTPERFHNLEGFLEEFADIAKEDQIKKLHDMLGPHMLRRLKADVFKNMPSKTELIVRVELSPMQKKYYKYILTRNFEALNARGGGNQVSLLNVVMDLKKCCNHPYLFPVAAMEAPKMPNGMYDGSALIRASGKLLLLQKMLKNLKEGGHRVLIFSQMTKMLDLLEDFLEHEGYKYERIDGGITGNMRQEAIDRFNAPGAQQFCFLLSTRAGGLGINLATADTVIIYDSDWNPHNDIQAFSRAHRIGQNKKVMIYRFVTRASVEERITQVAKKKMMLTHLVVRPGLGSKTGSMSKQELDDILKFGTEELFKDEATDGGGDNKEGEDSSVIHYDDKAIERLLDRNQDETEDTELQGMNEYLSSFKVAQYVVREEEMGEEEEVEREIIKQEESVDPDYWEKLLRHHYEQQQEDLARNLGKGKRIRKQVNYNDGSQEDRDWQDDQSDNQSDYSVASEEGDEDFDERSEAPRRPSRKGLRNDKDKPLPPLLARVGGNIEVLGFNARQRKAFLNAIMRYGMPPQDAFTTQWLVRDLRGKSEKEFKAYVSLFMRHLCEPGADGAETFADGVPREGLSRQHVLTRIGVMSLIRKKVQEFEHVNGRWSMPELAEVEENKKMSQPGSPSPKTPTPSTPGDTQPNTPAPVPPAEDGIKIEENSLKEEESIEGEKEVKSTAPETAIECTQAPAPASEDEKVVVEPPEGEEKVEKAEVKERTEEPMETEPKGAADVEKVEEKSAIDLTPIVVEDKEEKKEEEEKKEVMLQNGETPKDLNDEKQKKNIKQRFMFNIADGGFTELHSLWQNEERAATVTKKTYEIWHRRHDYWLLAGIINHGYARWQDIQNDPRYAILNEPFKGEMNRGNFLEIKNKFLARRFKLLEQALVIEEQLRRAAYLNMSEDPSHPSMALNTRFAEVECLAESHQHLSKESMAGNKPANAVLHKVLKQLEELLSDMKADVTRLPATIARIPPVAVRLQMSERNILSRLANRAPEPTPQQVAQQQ
Experimental: based nucleosome repositioning assays were performed with different concentrations of Mi-2β and a non-
limiting ATP concentration (1 mM) for the indicated incubation time (n=3). c The ATP titration
(concentrations ranging from 0.1 to 300 µM) was performed with the FRET-based nucleosome
time. […] Values represent mean
based nucleosome repositioning assays.

[2] = tested on: Cxcl9 and Cxcl10 mRNA in B16F10 cells; assay: RT-qPCR of Mi-2β target genes in treated cells; type: cell-based, mouse
Experimental: Z36-MP5 was chosen for further validation and experimental therapeutics in vivo. […] To investigate its cellular inhibitory activity, B16F10 cells were treated with Z36-MP5 at concentrations ranging from 5 to 100 µM, and the activation of Mi-2β target genes measured by RT-qPCR. […] In addition, the pharmacokinetic properties of Z36-MP5 in Sprague-Dawley rats with administration of intraperitoneal injection dose of 1.0 mg/kg. […] To exclude any effects on the host cells, we implanted Mi-2β-null melanoma cells into C57BL6 mice and then treated the mice with Z36-MP5 accompanied by anti-PD-1 therapy.
The total RNA was extracted with QIAGEN RNeasy kit […] for cDNA synthesis with SuperScript II Reverse Transcriptase (Invitrogen). In total, 40 ng cDNA was used for quantitative real-time PCR amplification by TaqMan Gene Expression Master Mix (Thermo Fisher Scientific). The relative transcript levels were normalized with GAPDH expression. The data were calculated with the comparative CT method. Primers for RT-qPCR assays are shown in Supplementary Data 3.

## Cn1c(=O)[nH]c2ccc(-c3cccc(C(=O)NC4CCn5ccnc5C4)c3)cc21 (stereo not shown) [Z36-MP5]
[1]
  CD4+ T-cell and Treg populations: not affected
  CD8+ T-cell population: moderately induced
B16F10 cell graft; B16F10 graft, MS177 100 mg/kg 5 days, then anti-PD-1 with Z36-MP5 or vehicle
  treatment effect in mice treated with MS177 to inhibit EZH2: No treatment effects were detected
B16F10 cell graft; Z36-MP5 30 mg/kg/day accompanied by anti-PD-1
  effect on tumors generated from Mi-2β-null cells: No detectable inhibitory effect
Mi-2β mutation (H727A)
  sensitivity of Mi-2β H727A mutant to inhibitor: no longer sensitive; also recorded: histidine 727 of Mi-2β dependent
[2]; 5 μM to 100 μM
  expressions of Mi-2β target genes Cxcl9 and Cxcl10: substantial increases
[2]; 25 µM, 24 h
  Mi-2β target gene expression (Cxcl9, Cxcl10 mRNA): induced Mi-2β target gene expression including Cxcl9 and Cxcl10
